Measured values from ChEMBL document CHEMBL3046852, “Synthesis and analgesic activity of new pyridine-based heterocyclic derivatives” (2012).
Activity calls are given as the source filed them. No cut-off for these calls is given here.

What was measured:
Mus musculus [1] = assay: Analgesic activity in Mus musculus albino (mouse) assessed as latency time at 25 mg/kg, ip after 30 min by tail-flick test; type: functional; conditions: route intraperitoneal
Mus musculus [2] = assay: Analgesic activity in Mus musculus albino (mouse) assessed as latency time at 25 mg/kg, ip after 30 min by hot-plate test; type: functional; conditions: route intraperitoneal
Mus musculus [3] = assay: Analgesic activity in Mus musculus albino (mouse) assessed as latency time at 25 mg/kg, ip after 30 min in presence of 2 mg/kg, ip of mecamylamine by tail-flick test; type: functional
Mus musculus [4] = assay: Analgesic activity in Mus musculus albino (mouse) assessed as inhibition of formalin-induced paw licking behavior in both phases of formalin response at 25 mg/kg, ip administered 30 min before formalin challenge; type: functional, organism-based; set-up: dose 25 mg/kg
Mus musculus [5] = assay: Analgesic activity in Mus musculus albino (mouse) assessed as latency time at 17.5 mg/kg, ip after 30 min by tail-flick test; type: functional; conditions: route intraperitoneal
Mus musculus [6] = assay: Analgesic activity in Mus musculus albino (mouse) assessed as latency time at 17.5 mg/kg, ip after 30 min by hot-plate test; type: functional; conditions: route intraperitoneal

Structure (SMILES)	Time (Mus musculus [1]) [s]	Time (Mus musculus [2]) [s]	Time (Mus musculus [3]) [s]	Activity (Mus musculus [4])	Time (Mus musculus [5]) [s]	Time (Mus musculus [6]) [s]
CC(=O)N1N=C(c2cccnc2)OC1c1ccccc1[N+](=O)[O-] (stereo not drawn)	4.93	7.29				
Cc1nnc(-c2cccnc2)[nH]1	7.99	9.65	5.17	Active		
O=[N+]([O-])c1ccccc1-c1nnc(-c2ccncc2)[nH]1	11.8	15.1	5.23	Active		
c1ccc(-c2nnc(-c3ccncc3)[nH]2)cc1	5.33	7.81				
CC(=O)N1N=C(c2cccnc2)OC1c1ccccc1 (stereo not drawn)	8.44	10.03	5.13	Active		
CC(C)=CCN1CC[C@@]2(C)c3cc(O)ccc3C[C@@H]1[C@@H]2C (relative stereo)					12.84	19.89
CC(=O)N1N=C(c2ccncc2)OC1c1ccccc1[N+](=O)[O-] (stereo not drawn)	4.76	7.48				
CC(=O)N1N=C(c2cccnc2)OC1C (stereo not drawn)	8.95	10.03	5.14	Active		
Cc1n[nH]c(-c2ccncc2)n1	7.62	9.49	5.22	Active		
CC(=O)N1N=C(c2ccncc2)OC1c1ccccc1Cl (stereo not drawn)	6.03	7.81				
c1ccc(-c2n[nH]c(-c3cccnc3)n2)cc1	4.73	7.5				
CC(=O)N1N=C(c2ccncc2)OC1C (stereo not drawn)	11.03	12.93	5.14	Active		
CC(=O)N1N=C(c2ccncc2)OC1c1ccccc1 (stereo not drawn)	6.03	7.78				
Cc1cc(=O)[nH]n1C(=O)c1cccnc1	5.26	7.54				
O=[N+]([O-])c1ccccc1-c1nnc(-c2cccnc2)[nH]1	6.15	8.47				
Clc1ccccc1-c1nnc(-c2cccnc2)[nH]1	5.53	8.55				
Cc1cc(=O)[nH]n1C(=O)c1ccncc1	5.7	7.51				
Clc1ccccc1-c1nnc(-c2ccncc2)[nH]1	11.2	13.12	5.12	Active		
CC(=O)N1N=C(c2cccnc2)OC1c1ccccc1Cl (stereo not drawn)	5.16	7.77				
Cc1cc(C)n(C(=O)c2cccnc2)n1	7.69	8.3	5.18	Active		
Cc1cc(C)n(C(=O)c2ccncc2)n1	6.4	8.11				
